Consider 33 molecules from patent US11559537B2, “Combination therapies using caspase-1 dependent anticancer agents and PGE2 antagonists” (Trustees of Tufts College, priority 2017, dated 2023).

pIC50: −log10 of the molar value. “And” between values parts separate entries of the source, which are not always exact repeats. Equal values may be shown once.

The target of one assay is recombinant human PREP (Homo sapiens (Human), UniProt P48147). As to the kind of experiment: In vitro inhibition assay, prolyl oligopeptidase. It counts as biochemical. Particulars: Z-Gly-Pro-AMC substrate.
Chain of recombinant human PREP (P48147 whole entry): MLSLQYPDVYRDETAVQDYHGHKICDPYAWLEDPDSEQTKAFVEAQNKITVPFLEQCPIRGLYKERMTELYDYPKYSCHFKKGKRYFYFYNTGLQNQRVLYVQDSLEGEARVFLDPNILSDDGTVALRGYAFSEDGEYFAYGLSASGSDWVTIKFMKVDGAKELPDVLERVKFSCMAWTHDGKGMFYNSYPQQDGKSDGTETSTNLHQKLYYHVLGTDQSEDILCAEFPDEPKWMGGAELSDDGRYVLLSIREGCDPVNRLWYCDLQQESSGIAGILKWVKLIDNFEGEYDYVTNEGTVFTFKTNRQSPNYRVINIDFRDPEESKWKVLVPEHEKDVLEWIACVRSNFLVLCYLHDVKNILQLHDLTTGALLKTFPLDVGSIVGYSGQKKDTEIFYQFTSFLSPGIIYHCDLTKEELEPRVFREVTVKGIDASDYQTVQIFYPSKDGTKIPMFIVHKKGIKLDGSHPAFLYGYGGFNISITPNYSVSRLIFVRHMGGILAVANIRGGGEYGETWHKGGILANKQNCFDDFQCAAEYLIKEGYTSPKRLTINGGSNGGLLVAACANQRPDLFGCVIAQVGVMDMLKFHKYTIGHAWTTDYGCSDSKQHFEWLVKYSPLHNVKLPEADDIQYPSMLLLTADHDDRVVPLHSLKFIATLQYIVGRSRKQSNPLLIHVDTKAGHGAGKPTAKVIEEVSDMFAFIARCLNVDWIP
For another assay, the target named is recombinant human DPPII (Homo sapiens (Human), UniProt Q9UHL4). Nature of the assay: In vitro inhibition assay, dipeptidyl peptidase II. It counts as biochemical. Particulars: Lys-Pro-AMC substrate, read-out: DPP2.
Another assay addresses recombinant human DPPIV (Homo sapiens (Human), UniProt P27487). As to the kind of experiment: In vitro inhibition assay, dipeptidyl peptidase IV. It counts as biochemical. Particulars: Gly-Pro-AMC substrate, read-out: DPP4.
The subject of assay [1] is MB49 murine urothelial carcinoma. Nature of the assay: MB49 efficacy studies. It counts as in vivo, mouse.
In the next assay the target is recombinant human FAP (Homo sapiens (Human), UniProt Q12884). Nature of the assay: In vitro inhibition assay, fibroblast activation protein. Particulars: Z-Gly-Pro-AMC substrate. It counts as biochemical.
Chain of recombinant human FAP (Q12884 whole entry): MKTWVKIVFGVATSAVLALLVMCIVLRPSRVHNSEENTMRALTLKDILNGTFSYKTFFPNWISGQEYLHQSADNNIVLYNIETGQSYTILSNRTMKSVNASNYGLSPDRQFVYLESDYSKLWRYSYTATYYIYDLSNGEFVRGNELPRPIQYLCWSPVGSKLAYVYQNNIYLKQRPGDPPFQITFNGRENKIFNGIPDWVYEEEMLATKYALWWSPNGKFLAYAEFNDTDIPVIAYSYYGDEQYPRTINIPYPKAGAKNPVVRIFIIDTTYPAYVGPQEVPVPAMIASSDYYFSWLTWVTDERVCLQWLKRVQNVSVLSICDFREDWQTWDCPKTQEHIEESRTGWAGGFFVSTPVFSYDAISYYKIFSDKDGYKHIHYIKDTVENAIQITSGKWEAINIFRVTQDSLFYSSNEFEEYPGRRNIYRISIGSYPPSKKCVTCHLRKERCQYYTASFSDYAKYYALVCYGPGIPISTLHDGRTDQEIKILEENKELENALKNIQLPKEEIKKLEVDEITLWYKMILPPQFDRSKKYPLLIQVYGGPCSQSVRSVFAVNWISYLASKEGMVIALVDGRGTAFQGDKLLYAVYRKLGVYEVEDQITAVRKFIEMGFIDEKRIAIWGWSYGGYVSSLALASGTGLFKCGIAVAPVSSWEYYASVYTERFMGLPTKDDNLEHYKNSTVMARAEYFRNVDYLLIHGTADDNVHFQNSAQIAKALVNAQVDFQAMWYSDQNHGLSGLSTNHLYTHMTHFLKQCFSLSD
For assay [2] the following is noted: cited from earlier work.
The next assay deals with recombinant human DPP8 (Homo sapiens (Human), UniProt Q6V1X1). As to the kind of experiment: In vitro inhibition assay, dipeptidyl peptidase 8. It counts as biochemical. Particulars: recombinant human DPP8, Gly-Pro-AMC substrate.
Chain of recombinant human DPP8 (Q6V1X1 whole entry): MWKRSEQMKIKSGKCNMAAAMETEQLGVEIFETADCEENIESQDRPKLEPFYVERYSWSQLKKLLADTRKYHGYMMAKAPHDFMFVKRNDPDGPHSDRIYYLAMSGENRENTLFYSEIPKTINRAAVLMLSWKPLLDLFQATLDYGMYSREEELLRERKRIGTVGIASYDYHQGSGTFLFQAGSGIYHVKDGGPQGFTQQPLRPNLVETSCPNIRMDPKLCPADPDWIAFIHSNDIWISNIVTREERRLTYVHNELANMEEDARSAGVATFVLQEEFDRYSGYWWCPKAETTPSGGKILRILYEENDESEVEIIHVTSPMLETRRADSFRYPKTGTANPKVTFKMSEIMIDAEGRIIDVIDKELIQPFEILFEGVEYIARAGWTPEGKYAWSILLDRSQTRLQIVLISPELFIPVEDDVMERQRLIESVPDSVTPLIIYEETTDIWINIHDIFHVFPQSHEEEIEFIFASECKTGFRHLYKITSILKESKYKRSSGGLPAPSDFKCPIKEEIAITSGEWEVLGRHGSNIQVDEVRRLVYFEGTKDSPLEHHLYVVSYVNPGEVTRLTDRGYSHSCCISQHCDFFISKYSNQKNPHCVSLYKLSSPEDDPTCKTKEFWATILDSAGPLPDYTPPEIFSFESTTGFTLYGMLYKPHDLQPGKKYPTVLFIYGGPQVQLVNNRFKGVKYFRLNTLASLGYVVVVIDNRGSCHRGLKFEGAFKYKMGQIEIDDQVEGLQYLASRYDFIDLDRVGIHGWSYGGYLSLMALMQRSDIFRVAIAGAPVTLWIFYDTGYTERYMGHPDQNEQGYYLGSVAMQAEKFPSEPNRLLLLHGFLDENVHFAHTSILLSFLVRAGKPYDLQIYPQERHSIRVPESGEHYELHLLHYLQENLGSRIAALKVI
The target in another assay is recombinant human DPP9 (Homo sapiens (Human), UniProt Q86TI2). As to the kind of experiment: In vitro inhibition assay, dipeptidyl peptidase 9. It counts as biochemical. Particulars: recombinant human DPP9, Gly-Pro-AMC substrate.
Chain of recombinant human DPP9 (Q86TI2 whole entry): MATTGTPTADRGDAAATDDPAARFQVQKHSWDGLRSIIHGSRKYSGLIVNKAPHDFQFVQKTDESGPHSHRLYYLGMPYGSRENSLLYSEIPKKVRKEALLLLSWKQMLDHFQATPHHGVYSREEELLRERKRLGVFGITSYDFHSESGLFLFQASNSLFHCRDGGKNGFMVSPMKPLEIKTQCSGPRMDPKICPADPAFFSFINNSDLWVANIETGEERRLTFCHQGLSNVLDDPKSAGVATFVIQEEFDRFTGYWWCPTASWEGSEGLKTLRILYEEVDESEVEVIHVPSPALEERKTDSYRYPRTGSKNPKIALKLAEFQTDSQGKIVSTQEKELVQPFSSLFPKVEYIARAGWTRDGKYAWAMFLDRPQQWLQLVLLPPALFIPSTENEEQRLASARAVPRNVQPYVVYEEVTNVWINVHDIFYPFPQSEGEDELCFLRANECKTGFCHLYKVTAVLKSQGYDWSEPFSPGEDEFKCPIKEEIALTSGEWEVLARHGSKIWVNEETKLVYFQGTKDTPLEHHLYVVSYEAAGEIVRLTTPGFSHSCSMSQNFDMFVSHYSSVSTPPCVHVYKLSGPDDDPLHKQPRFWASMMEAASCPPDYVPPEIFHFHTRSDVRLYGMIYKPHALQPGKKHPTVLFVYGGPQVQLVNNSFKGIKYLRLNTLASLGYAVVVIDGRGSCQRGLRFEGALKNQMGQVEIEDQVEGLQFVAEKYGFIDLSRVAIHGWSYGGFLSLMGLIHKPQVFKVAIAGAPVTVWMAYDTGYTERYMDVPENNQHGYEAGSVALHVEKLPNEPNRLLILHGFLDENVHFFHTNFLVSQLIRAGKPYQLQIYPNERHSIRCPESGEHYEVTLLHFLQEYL

Chain of recombinant human DPPIV (P27487 whole entry): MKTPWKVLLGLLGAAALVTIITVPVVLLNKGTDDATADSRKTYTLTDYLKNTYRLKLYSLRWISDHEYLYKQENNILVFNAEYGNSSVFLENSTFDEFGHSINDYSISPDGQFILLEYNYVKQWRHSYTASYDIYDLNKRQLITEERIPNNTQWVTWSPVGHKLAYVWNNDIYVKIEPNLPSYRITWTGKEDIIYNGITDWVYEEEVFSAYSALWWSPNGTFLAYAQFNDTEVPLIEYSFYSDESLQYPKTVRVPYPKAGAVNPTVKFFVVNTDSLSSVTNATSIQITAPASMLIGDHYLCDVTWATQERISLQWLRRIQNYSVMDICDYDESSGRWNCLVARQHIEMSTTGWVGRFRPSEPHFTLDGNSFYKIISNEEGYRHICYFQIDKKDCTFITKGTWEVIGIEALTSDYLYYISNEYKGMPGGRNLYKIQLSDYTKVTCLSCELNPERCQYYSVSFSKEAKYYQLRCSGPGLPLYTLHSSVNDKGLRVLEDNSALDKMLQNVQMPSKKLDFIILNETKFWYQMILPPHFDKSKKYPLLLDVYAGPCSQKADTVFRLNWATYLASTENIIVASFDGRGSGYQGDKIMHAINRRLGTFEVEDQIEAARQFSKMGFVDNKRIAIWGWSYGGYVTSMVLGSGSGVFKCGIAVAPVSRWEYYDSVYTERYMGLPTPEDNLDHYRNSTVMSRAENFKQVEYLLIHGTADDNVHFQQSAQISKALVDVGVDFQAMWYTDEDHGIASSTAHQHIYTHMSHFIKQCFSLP

As to `CC[C@@H](C)[C@H](N)C(=O)N1Cc2ccccc2[C@H]1B(O)O` [1049 C], the values for the pIC50 at recombinant human PREP and at recombinant human DPPII were < 4.00 and 7.02, respectively.
`CC(C)[C@@H](C(=O)N1CCC[C@H]1B(O)O)N(C)C` [2504 C]: the pIC50 at recombinant human DPPII was 5.00.
`N[C@H](C(=O)N1Cc2ccccc2C1)C1CCCCC1` [3360 C]: the pIC50 at recombinant human DPPIV is 5.86.
On to `CC(C)[C@H](N)C(=O)N1C[C@@H](O)C[C@H]1B(O)O` [4312 S], for which the pIC50 on recombinant human DPPIV was 8.05; at recombinant human DPPII, 6.21.
For `Cc1ccc(-c2cc(C(F)(F)F)nn2-c2ccc(S(N)(=O)=O)cc2)cc1` [celecoxib], in assay [1] (celecoxib alone, various concentrations, MB49 tumor bearing mice), the “tumor growth rates compared to control (vehicle)” value is “no observed differences in tumor growth rates compared to control”.
As for `C[C@H](N)C(=O)N1CCC[C@H]1B(O)O` [compound 1129], on recombinant human DPPII, the pIC50 was 8.85 and 9.00.
Turning to `O=C([C@@H]1CCCN1)N1CCC[C@H]1B(O)O` [compound 1181], the pIC50 at recombinant human DPPIV was 8.89; at recombinant human DPPII, 7.27.
Regarding `N[C@@H](Cc1ccccc1)C(=O)N1CCC[C@H]1B(O)O` [compound 1336], the pIC50 on recombinant human DPPIV is 8.70.
Turning to `CC(C)C[C@H](N)C(=O)N1CCC[C@H]1B(O)O` [compound 1454], the pIC50 at recombinant human DPPIV is 8.80; at recombinant human DPPII, 9.00; at recombinant human FAP it was 6.82.
Consider `NCCCC[C@H](N)C(=O)N1CCC[C@H]1B(O)O` [compound 1700], for which the pIC50 on recombinant human DPPIV was 8.89.
Turning to `N[C@H](C(=O)N1CCC[C@H]1B(O)O)C1CCCCC1` [compound 1797], the values for the pIC50 at recombinant human DPPIV and on recombinant human DPPII were 8.92 and 8.68, respectively.
`CC(C)[C@H](N)C(=O)N1CCC[C@H]1B(O)O` [compound 2054, Valine-boroProline]: in assay [2] (in combination with standard cytotoxic chemotherapy), the “efficacy in phase II trials” value is reported as “did not meet the endpoints for efficacy”. Besides, the partial response in assay [2] (phase I, talabostat and rituximab, rituximab-resistant lymphoma) is 3 patients. Besides, in assay [2] (phase I, thirteen patients, concomitant immunosuppressive chemotherapy), the “patients with improvement in grade 3 neutropenia” value is “five”. The “tumor regression in combination with celecoxib” value in assay [1] (20 microgram dose of Val-boroPro, individual animal curves) was “facilitated the achievement of tumor regression”. Moreover, in assay [1] (MB49 tumor bearing mice, Val-boroPro + celecoxib), the “antitumor activity in combination with celecoxib” value is “increased the antitumor activity of Val-boroPro markedly (statistically significantly) and in a dose-dependent manner”.
In the case of `C[C@H](N)C(=S)N1CCC[C@H]1B(O)O` [compound 2243], the pIC50 at recombinant human FAP is 6.89.
Regarding `CN(CB(O)O)C(=O)[C@@H](N)CCC(=O)O` [compound 2408], the figures for the pIC50 at recombinant human DPPII and on recombinant human FAP were 5.77 and 4.96, respectively.
As for `CC(C)[C@H](N)C(=O)N1C[C@H](O)C[C@H]1B(O)O` [compound 4312], the values for the pIC50 at recombinant human DPPIV and on recombinant human DPPII were 8.70 and 5.19, respectively.
In the same order, the values of `CC[C@H](C)[C@H](N)C(=O)N1CCC[C@H]1B(O)O` [compound 4316] are 8.92 and 8.11.
In the same order, the values of `CC[C@@H](C)[C@H](N)C(=O)N1CCC[C@H]1B(O)O` [compound 4317] are 8.70 and 7.92.
With `CC[C@@H](C)C(N)C(=O)N1Cc2ccc(F)cc2C1` (some centres unmarked) [compound 5291, reference compound], the pIC50 at recombinant human PREP and at recombinant human FAP was < 4.00 throughout.
Take `CC(C)[C@H](N)C(=O)N1CCC[C@H]1C(=O)CO` [compound 5298]: the pIC50 at recombinant human DPPIV is 8.35; on recombinant human PREP it was < 4.00; at recombinant human DPPII, 5.38; on recombinant human FAP, < 4.00.
Turning to `N[C@H](C(=O)N1Cc2ccc(F)cc2C1)C1CCCCC1` [compound 5311], the pIC50 at recombinant human DPPIV was < 4.00; at recombinant human PREP it was < 4.00; at recombinant human DPPII, 4.20; at recombinant human DPP8 it was 4.09; at recombinant human FAP it was < 4.00.
As for `NC(=O)C[C@H](N)C(=O)N1Cc2ccc(F)cc2C1` [compound 5316], the pIC50 at recombinant human DPPIV is < 4.00; on recombinant human PREP it was < 4.00; on recombinant human DPPII it was 4.04; at recombinant human DPP8 it was 5.39; on recombinant human FAP, < 4.00.
In the case of `CN(C)C(=O)C[C@H](N)C(=O)N1Cc2ccc(F)cc2C1` [compound 5317], the pIC50 at recombinant human DPPIV was 4.26; at recombinant human PREP, < 4.00; on recombinant human DPPII it was 4.66; at recombinant human FAP, < 4.00.
With `CC(C)[C@H](N)C(=O)N1Cc2ccc(F)cc2C1` [compound 5321], the figures for the pIC50 on recombinant human PREP, at recombinant human DPPII and on recombinant human FAP were < 4.00, 4.35 and < 4.00, respectively.
With `CC(C)(C)[C@H](N)C(=O)N1Cc2ccc(F)cc2C1` [compound 5322], the pIC50 was < 4.00 on recombinant human PREP, 4.43 at recombinant human DPPII and < 4.00 at recombinant human FAP.
For the molecule `O=C([C@@H]1CCCCN1)N1Cc2ccc(F)cc2C1` [compound 5323], the pIC50 on recombinant human DPP9 was 6.52; at recombinant human DPPIV, 4.22; at recombinant human PREP, < 4.00; on recombinant human DPPII it was < 4.00; at recombinant human DPP8, 6.06; on recombinant human FAP, < 4.00.
In the case of `NCCCC[C@H](N)C(=O)N1Cc2ccc(F)cc2C1` [compound 5325], the pIC50 is < 4.00 on recombinant human DPPIV; < 4.00 on recombinant human PREP; 6.07 at recombinant human DPPII; 6.91 on recombinant human DPP8; < 4.00 on recombinant human FAP.
Turning to `N[C@H](C(=O)N1Cc2ccc(F)cc2C1)C1CCCC1` [compound 5333], the pIC50 is 4.58 at recombinant human DPPII and < 4.00 at recombinant human FAP.
Take `CC[C@H](N)C(=O)N1CCC[C@H]1B(O)O` [compound 5466]: the pIC50 at recombinant human DPPII is 8.54.
Take `NC1(C(=O)N2Cc3ccc(F)cc3C2)CCNCC1` [compound 5552]: the pIC50 on recombinant human DPP9 is < 4.00; on recombinant human DPPII, < 4.00; on recombinant human DPP8, < 4.00; at recombinant human FAP, 4.39.
With `NC1(C(=O)N2Cc3ccccc3C2)CCNCC1` [compound 5553], the pIC50 at recombinant human DPPIV was < 4.00; at recombinant human DPPII it was 6.01; at recombinant human DPP8, < 4.00; at recombinant human FAP it was < 4.00.
For `NC1(C(=O)N2CCSC2)CCNCC1` [compound 5554], the pIC50 on recombinant human DPP9 is < 4.00; at recombinant human DPPIV it was < 4.00; on recombinant human PREP, 4.60; at recombinant human DPPII, 4.44; on recombinant human DPP8, < 4.00; on recombinant human FAP, < 4.00.
Take `N[C@@H](CCC(=O)O)C(=O)N1CCC[C@H]1B(O)O` [compound 8120]: the pIC50 at recombinant human DPPIV was 8.96; at recombinant human DPPII, 7.92.
Regarding `CC(C)(C)[C@H](N)C(=O)N1CCC[C@H]1C#N` [compound 9987], the pIC50 at recombinant human PREP and on recombinant human DPPII was < 4.00 throughout.
